Legend:
[1] = biological target: T1, human adenosine A1 receptor (Homo sapiens, UniProt P30542); experiment: Measurement of the ability to bind to adenosine A1 receptor (3H-CCPA binding inhibition); settings: membrane of CHOK1 cells expressing human A1 receptor, Cheng-Prusoff
T1 construct: expressed in transfected cells; host or cells: CHOK1 cells (membrane sample)
T1 sequence (P30542 1-326): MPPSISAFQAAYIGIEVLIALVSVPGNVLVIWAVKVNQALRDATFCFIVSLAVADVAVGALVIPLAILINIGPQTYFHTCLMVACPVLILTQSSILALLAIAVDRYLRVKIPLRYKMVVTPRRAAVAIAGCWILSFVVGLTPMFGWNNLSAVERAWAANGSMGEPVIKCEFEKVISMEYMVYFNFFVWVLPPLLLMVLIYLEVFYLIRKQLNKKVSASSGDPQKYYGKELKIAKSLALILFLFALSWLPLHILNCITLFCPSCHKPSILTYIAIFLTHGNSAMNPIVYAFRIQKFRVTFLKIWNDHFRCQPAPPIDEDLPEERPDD
Protocol: Measurement of the Ability to Bind to Adenosine A1 Receptor
A human adenosine A1 receptor cDNA was expressed in excess in CHOK1 cells, and this membrane sample was added at a protein concentration of 66.7 μg/ml to, and suspended in, 20 mM HEPES buffer, pH 7.4 (10 mM MgCl2, 100 mM NaCl). To 0.45 ml of this membrane sample suspension were added 0.025 ml of 60 nM tritium-labeled chlorocyclopentyl adenosine (^3H—CCPA, from NEN Ltd.) and 0.025 ml test compound. This mixture was left at 30° C. for 120 minutes, filtered rapidly under suction through a glass fiber filter (GF/B, from Whatman), and immediately washed twice with 5 ml of 50 mM water-cooled Tris-HCl buffer. Thereafter, the glass fiber filter was transferred to a vial, a scintillator was added thereto, and the radioactivity on the filter was measured by a liquid scintillation counter. The inhibition of binding of ^3H—CCPA to A1 receptor by the test compound was determined using the following formula, and from this inhibition, 50% inhibition concentration (IC50) was calculated (the following equation).
Inhibition (%)=[1−{binding in the presence of the test compound-non-specific binding)/(total binding-non-specific binding)}]×100
In the above formula, the total binding means ^3H—CCPA-bound radioactivity in the absence of the test compound; the non-specific binding means ^3H—CCPA-bound radioactivity in the presence of 100 μM RPIA ([R]-[1-methyl-2-phenylethyl] adenosine); and the binding in the presence of the test compound means ^3H—CCPA-bound radioactivity in the presence of the test compound at predetermined concentrations. The inhibition constant (Ki value) in the table was determined from the formula of Cheng-Prusoff.

adenosine A2a receptor = biological target: T2, adenosine A2a receptor (Homo sapiens, UniProt P29274); experiment: Measurement of the ability to bind to adenosine A2a receptor (3H-CGS21680 binding inhibition); settings: A2a receptor membrane sample, 3H-CGS21680, Cheng-Prusoff
T2 construct: purchased Receptor Biology Inc
Protocol: Measurement of the Ability to Bind to Adenosine A2a Receptor
An experiment of inhibition of binding to adenosine A2a receptor was conducted using a membrane sample (Receptor Biology Inc.) where an adenosine A2a receptor cDNA was expressed in excess. This membrane sample was added at a protein concentration of 22.2 μg/ml to, and suspended in, 20 mM HEPES buffer, pH 7.4 (10 mM MgCl2 and 100 mM NaCl). To 0.45 ml of this membrane sample suspension were added 0.025 ml of 500 nM tritium-labeled 2-p-[2-carboxyethyl]phenetylamino-5′-N-ethylarboxyamide adenosine (^3H—CGS21680, from NEN) and 0.025 ml test compound. This mixture was left at 25° C. for 90 minutes, filtered rapidly under suction through a glass fiber filter (GF/B, from Whatman), and immediately washed twice with 5 ml of 50 mM water-cooled Tris-HCl buffer. Thereafter, the glass fiber filter was transferred to a vial, a scintillator was added thereto, and the radioactivity on the filter was measured by a liquid scintillation counter. The inhibition of binding of ^3H—CGS21680 to A2a receptor by the test compound was determined using the following formula, and from this inhibition, 50% inhibition concentration (IC50) was calculated.
Inhibition (%)=[1−{binding in the presence of the test compound-nonspecific binding)/(total binding-nonspecific binding)}]×100
Here, the total binding means ^3H—CGS21680-bound radioactivity in the absence of the test compound; the nonspecific binding means ^3H—CGS21680-bound radioactivity in the presence of 100 μM RPIA; and the binding in the presence of the test compound means ^3H—CGS21680-bound radioactivity in the […] of the test compound at predetermined concentrations. The inhibition constant (Ki value) in the table was determined from the formula of Cheng-Prusoff.

[2] = biological target: T3, human adenosine A2b receptor (Homo sapiens, UniProt P29275); experiment: Inhibition of NECA-stimulated production of cAMP in adenosine A2b receptor-expressing cells; format: cell-based; settings: CHOK1 cells expressing human A2b receptor, 30 nM NECA
T3 construct: expressed in transfected cells; host or cells: CHOK1 cells
T3 sequence (P29275 1-332): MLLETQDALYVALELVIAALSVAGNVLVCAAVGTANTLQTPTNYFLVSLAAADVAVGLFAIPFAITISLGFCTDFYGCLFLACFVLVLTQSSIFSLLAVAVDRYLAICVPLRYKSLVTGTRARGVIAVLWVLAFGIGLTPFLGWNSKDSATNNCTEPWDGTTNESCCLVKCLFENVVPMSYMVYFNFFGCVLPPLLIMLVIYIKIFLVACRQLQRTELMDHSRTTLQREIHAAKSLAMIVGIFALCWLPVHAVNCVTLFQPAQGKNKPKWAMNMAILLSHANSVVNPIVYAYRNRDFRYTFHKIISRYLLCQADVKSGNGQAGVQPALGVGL
Protocol: Experiment of Inhibition of NECA-stimulated Production of cAMP in Adenosine A2b Receptor-expressing Cells
CHOK1 cells where a human adenosine A2b receptor had been expressed in excess were plated onto a 24-well plate at a density of 1.5×10^5 cells/well, cultured overnight, and used in the experiment. The degree of inhibitory effect of the test compound on the amount of cAMP produced by stimulation with 30 nM 5′-N-ethylcarboxyamide adenosine (NECA from Sigma) was evaluated in terms of affinity for A2b receptor. That is, the adhering cells were washed twice with 2 ml/well Krebs-Ringer buffer solution (containing 0.1% BSA; pH 7.4) and pre-incubated for 30 minutes in a volume of 0.5 ml/well. Then, a mixed solution containing NECA and the test compound was added in a volume of 0.1 ml/well in the presence of a phosphodiesterase inhibitor Ro-20-1724 (a product of RBI). After pre-incubation for 15 minutes, the reaction was terminated with 0.1 N HCl in a volume of 300 μl/well. Measurement of intracellular cAMP was carried out using a cAMP enzyme immunoassay kit produced by Amersham. The inhibition of NECA-stimulated production of cAMP by the test compound was determined using the following equation:
Inhibition (%)=[1−{(amount of cAMP in the coexistence of NECA and the test compound-amount of CAMP in only the Krebs-Ringer buffer solution)/(amount of CAMP upon stimulation with NECA only-amount of cAMP in only the Krebs-Ringer buffer solution)}]×100

SD IGS rats = experiment: Evaluation of defecation-promoting action; format: in vivo, rat; settings: oral, 90 minutes after administration, per cage
From the text: Evaluation of Defecation-Promoting Action
The defecation-promoting action of the adenosine A2b receptor-inhibiting compound which was identified by measuring the binding ability and inhibitory ability thereof to the adenosine receptor in Test Example 1, a salt thereof, a hydrate of them, or a pharmaceutical composition containing it can be evaluated on the basis of the following method. That is, SD IGS rats (6 weeks-old, from Charles River) were placed in cages (3 animals/cage) and preliminarily allowed food and water ad libitum and raised for 1 week. Then, a tared water-absorbing sheet was placed below each cage, and the animals were fasted but allowed water ad libitum throughout the experiment. After 1.5 hours, the fecal pellets were recovered from each cage and observed for abnormality before the experiment. The compound suspended or dissolved in 0.5% (w/v) methyl cellulose (MC) was orally administered in a dose of 5 ml/kg. On one hand, 0.5% (w/v) MC only was orally given to the control group. After administration of the compound, the rats were returned to the cage provided with a new water-absorbing sheet, and 90 minutes after the administration, the fecal pellets on the water-absorbing sheet were recovered from each cage, and the external appearance was observed, and then counted and weighed. The number of fecal pellets is expressed per each cage. After the fecal pellets were recovered, the water-absorbing sheet was weighed, and the weight determined by subtracting the initial weight of the water-adsorbing sheet from the weight after the experiment was regarded as the volume of urine.

T2 sequence (P29274 whole entry): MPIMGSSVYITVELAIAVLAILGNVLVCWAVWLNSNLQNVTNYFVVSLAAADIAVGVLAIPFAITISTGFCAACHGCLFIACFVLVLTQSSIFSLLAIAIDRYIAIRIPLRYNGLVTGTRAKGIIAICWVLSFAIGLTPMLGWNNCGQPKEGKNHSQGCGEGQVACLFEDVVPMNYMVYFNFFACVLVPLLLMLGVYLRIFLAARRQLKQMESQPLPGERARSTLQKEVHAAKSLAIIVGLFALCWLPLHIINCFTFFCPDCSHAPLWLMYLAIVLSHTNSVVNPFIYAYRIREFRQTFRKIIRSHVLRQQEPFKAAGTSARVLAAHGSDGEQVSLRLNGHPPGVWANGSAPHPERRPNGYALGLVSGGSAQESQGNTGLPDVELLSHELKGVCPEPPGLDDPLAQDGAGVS

`CCn1cc(-c2cc(C#N)c(N)nc2-c2ccco2)ccc1=O` [Example 5, 2-Amino-5-(1-ethyl-6-oxo-1,6-dihydro-3-pyridinyl)-6-(2-furyl)nicotinonitrile] showed a Ki [1] of 400 nM, a Ki (adenosine A2a receptor) of 7 nM and an IC50 [2] of 6.5 nM. For the same compound, the “The number of fecal pellets” value (SD IGS rats; 1 mg/kg) was 7.00 ± 1.23 and the “The number of fecal pellets” value (SD IGS rats; 3 mg/kg) was 14.25 ± 3.38.
Work on “2-Amino-6-(fluorophenyl)-5-(4-pyridyl)-3-pyridinecarbonitrile [Example 2]” yielded a Ki [1] of 66 nM, a Ki (adenosine A2a receptor) of 22 nM and an IC50 [2] of 3.7 nM. The “The number of fecal pellets” value (SD IGS rats; 1 mg/kg) was 7.80 ± 0.20 and the “The number of fecal pellets” value (SD IGS rats; 10 mg/kg) was 18.00 ± 1.30.
Compound `N#Cc1cc(-c2ccncc2)c(-c2ccco2)nc1N` [Example 1, 2-Amino-6-(2-furyl)-5-(4-pyridyl)-3-pyridinecarbonitrile] has a Ki [1] of 990 nM, a Ki (adenosine A2a receptor) of 23 nM and an IC50 [2] of 2.7 nM. For the same compound, the “The number of fecal pellets” value (SD IGS rats; 1 mg/kg) was 1.75 ± 1.03, the “The number of fecal pellets” value (SD IGS rats; 3 mg/kg) was 7.25 ± 1.65 and the “The number of fecal pellets” value (SD IGS rats; 10 mg/kg) was 22.25 ± 2.93.

Reference: patent US6750232B2, “2-aminopyridine compounds and use thereof as drugs” (Eisai Co., Ltd., priority 2000, dated 2004)
